Assay results taken from patent US20240335431A1, “1-H-PYRROLO[2,3-c]PYRIDINE COMPOUNDS” (Acerta Pharma B.V., priority 2023, published 2024).
Like-named read-outs stand apart in the source and are kept apart here.

What was measured:
OCI-AML3 cells = assay: Proliferation assay, OCI-AML3 (CellTiter-Glo, 7 days); type: cell-based, human
In short: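 Cells seeded at 125 (MOLM-13), 300 (MV4;11), 75 (OCI-AML3) or 200 (HEL) per well were exposed to 3.16-fold compound dilutions (0.1% DMSO) for 7 days at 37° C. Viability by CellTiter-Glo luminescence, normalized to DMSO (100%) and day-0 plate (0%); IC50 from one-site dose-response fit.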

muscarinic M2 receptor = muscarinic M2 receptor (Homo sapiens (Human), UniProt P08172); assay: Muscarinic M2 receptor binding assay (assay 1); settings: [3H]AF-DX 384 2 nM, Cheng Prusoff
Experimental: Cell membrane homogenates (60 μg protein) were incubated for 60 minutes at 22° C. with 2 nM [3H]AF-DX 384 in the absence or presence of the test compound in a buffer containing 50 mM Tris-HCl (pH 7.4), 120 mM NaCl, 5 mM KCl, 5 mM MgCl2, and 1 mM EDTA. Nonspecific binding was determined in the presence of 1 μM atropine. Following incubation, the samples were filtered rapidly under vacuum through glass fiber filters (GF/B, Packard) presoaked with 0.3% PEI and rinsed several times with ice-cold 50 mM Tris-HCl using a 96-sample cell harvester (Unifilter, Packard). The filters were dried then counted for radioactivity in a scintillation counter (Topcount, Packard) using a scintillation cocktail (Microscint 0, Packard). The results were expressed as a percent inhibition of the control radioligand specific binding, from which the Ki was calculated. Data were analyzed using software developed at Cerep (Hill software) and validated by comparison with data generated by the commercial software SigmaPlot®4.0 for Windows® (© 1997 by SPSS Inc.). The inhibition constant, Ki, was calculated using the Cheng Prusoff equation:
where L=concentration of ligand in the assay, and Kd=affinity of the ligand for the receptor. The standard reference compound was methoctramine, which was tested in each experiment at several concentrations to obtain a competition curve from which its IC50 was calculated.

[1] = Human hepatocyte intrinsic clearance assay; type: in vitro ADME; settings: human hepatocytes
Experimental: Human hepatocytes (LiverPool™ 10-Donor Human hepatocytes (Mixed Gender, PEG-free, Product No. S01205, 5 million cells per vial) were obtained from BioreclamationIVT. DMSO was sourced from Solarbio S&T Co Ltd. Leibovitz's L-15 Medium, Williams' Medium E, GlutaMAX™-1 (100×), HEPES, DPBS (10×) and Human Recombinant Insulin Solution were purchased from Gibco. Isotonic Percoll Solution was purchased from GE Healthcare. Fetal Bovine Serum (FBS) was purchased from Corning.
10 mM dexamethasone stock solution was prepared by dissolving 3.9 mg dexamethasone in 1 mL of DMSO. An Isotonic Percoll Solution was prepared by dilution of Percoll with DPBS (10×). 15 mL of Isotonic Percoll Solution (90% Percoll/10% DPBS) was added to 31.25 mL William's E medium containing 500 mL of GlutaMAX™-1 (100×), 750 mL of 1M HEPES, 2.5 mL of 5% FBS, 50 mL of 4 mg/mL Human Recombinant Insulin Solution and 5 mL of the 10 mM dexamethasone stock.
2 mL of 10 mM DMSO stock solutions of test compound were added to 198 mL acetonitrile to produce 100 mmol/L concentration.
The human hepatocyte vial was thawed at 37° C. in a waterbath. Once thawed, contents were poured into a 50 mL conical tube and centrifuged at 100 g for 10 minutes. The thawing medium was poured out and 4 mL L-15 medium was added. The tube was gently shaken to resuspend the hepatocytes and cells were counted with an appropriate cell counter. 247.5 mL of the hepatocyte suspension was transferred into each well of the plate and pre-warmed at 600 rpm and 50° C. to enable the temperature to rise to 37° C.
2.5 mL of the […] test compound solution was added to initiate the reaction (final concentration […]) and incubated at 37° C. with shaking at 900 rpm. At 0.5, 5, 15, 30, 45, 60, 80, 100 and 120 minutes, 20 mL was taken into a quenching solution of acetonitrile containing internal standards. The mix was vortexed at 800 rpm for 2 minutes followed by centrifugation for 20 minutes at 4000 rpm at 4° C. 40 mL of supernatant was transferred into a 96 well analysis plate containing 160 mL of water in each well. The analysis plate was shaken at 100 rpm for 2 minutes prior to analysis by LC-MS/MS.
Peak areas were determined from extracted ion chromatograms. Percent parent remaining was calculated from peak area of test compound. The slope value, k, was determined by linear regression of the natural logarithm of percent parent remaining versus incubation time.
The in vitro intrinsic clearance (in vitro CLint in mL/min/10^6 cells) was determined from the slope value using the following equation: […]
where V is the incubation volume (0.25 mL) and N is the number of hepatocytes per well (0.25×10^6 cells).

muscarinic M2 receptor, sequence (P08172 whole entry): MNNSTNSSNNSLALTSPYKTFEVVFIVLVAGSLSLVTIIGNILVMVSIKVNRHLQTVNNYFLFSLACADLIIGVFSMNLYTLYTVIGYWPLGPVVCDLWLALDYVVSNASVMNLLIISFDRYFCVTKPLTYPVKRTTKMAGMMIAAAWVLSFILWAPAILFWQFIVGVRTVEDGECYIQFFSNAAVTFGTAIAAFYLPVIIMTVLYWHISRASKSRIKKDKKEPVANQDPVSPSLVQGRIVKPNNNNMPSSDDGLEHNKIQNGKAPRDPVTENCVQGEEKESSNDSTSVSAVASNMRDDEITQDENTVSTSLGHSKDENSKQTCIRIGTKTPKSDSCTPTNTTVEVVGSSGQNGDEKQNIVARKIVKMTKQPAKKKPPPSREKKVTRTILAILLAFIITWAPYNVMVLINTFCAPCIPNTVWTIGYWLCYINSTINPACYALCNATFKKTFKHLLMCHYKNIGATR

Row | Compound | IC50 (OCI-AML3 cells; Homo sapiens, OCI-AML-3, 168 h) | Ki (muscarinic M2 receptor) | HH CLint [1] | IC50 (OCI-AML3 cells)
1 | CCN(C(=O)c1cc(F)ccc1-n1cc(C(=O)C2CCN(C(=O)[C@H]3N[C@H]4C[C@@H]3[C@@H](F)C4)CC2)c2ccncc21)C(C)C [Example 30, N-Ethyl-5-fluoro-2-(3-(1-((1S,3S,4S,5S)-5-fluoro-2-azabicyclo[2.2.1]heptane-3-carbonyl)piperidine-4-carbonyl)-1H-pyrrolo[2,3-c]pyridin-1-yl)-N-isopropylbenzamide] | 0.059 µM | – | – | –
2 | CC(C)c1ncccc1-c1cc(F)ccc1-n1cc(C(=O)C2CCN(C(=O)[C@H]3N[C@@H]4CC[C@H]3C4)CC2)c2ccncc21 [Example 38, (1-((1R,3S,4S)-2-Azabicyclo[2.2.1]heptane-3-carbonyl)piperidin-4-yl)(1-(4-fluoro-2-(2-isopropylpyridin-3-yl)phenyl)-1H-pyrrolo[2,3-c]pyridin-3-yl)methanone] | – | 0.3 µM | <1.0 μl/min/1E6 | –
3 | Cc1c(C(=O)C2CCN(C(=O)[C@@H]3CCC(C)(C)N3)CC2)c2ccncc2n1-c1ccc(F)cc1C(=O)N(C(C)C)C(C)C (single isomer, unassigned) [Example 56-1] | – | 7.4 µM | 6.9 μl/min/1E6 | –
4 | CC(C)N(C(=O)c1cc(F)ccc1-n1cc(C(=O)C2CCN(C[C@H]3CC[C@H](NS(C)(=O)=O)CC3)CC2)c2ccncc21)C(C)C [Example 17, 5-Fluoro-N,N-diisopropyl-2-(3-(1-(((1r,4r)-4-(methylsulfonamido)cyclohexyl)-methyl)piperidine-4-carbonyl)-1H-pyrrolo[2,3-c]pyridin-1-yl)benzamide] | 0.356 µM | – | 1.2 μl/min/1E6 | –
5 | CCN(C(=O)c1cc(F)ccc1-n1c(C)c(C(=O)[C@@H]2CCN(C(=O)[C@@H]3CCC4(CC4)N3)[C@@H](C)C2)c2ccncc21)C(C)C (single isomer, unassigned) [Example 52-1, N-Ethyl-5-fluoro-N-isopropyl-2-(2-methyl-3-((2R*,4S*)-2-methyl-1-((S)-4-azaspiro[2.4]heptane-5-carbonyl)piperidine-4-carbonyl)-1H-pyrrolo[2,3-c]pyridin-1-yl)benzamide] | – | – | 4.1 μl/min/1E6 | 0.04 µM
6 | COCCN(C)CCC[C@H](C(C)C)N1CCC(C(=O)c2cn(-c3ccc(F)cc3C(=O)N(C(C)C)C(C)C)c3cnccc23)CC1 (racemic) [Example 23, rac-(R)-5-Fluoro-N,N-diisopropyl-2-(3-(1-(6-((2-methoxyethyl)(methyl)amino)-2-methylhexan-3-yl)piperidine-4-carbonyl)-1H-pyrrolo[2,3-c]pyridin-1-yl)benzamide] | – | 0.1 µM | 3.8 μl/min/1E6 | –
7 | CC(C)n1nccc1-c1cc(F)ccc1-n1cc(C(=O)C2CCN(C(=O)[C@H]3N[C@@H]4CC[C@H]3C4)CC2)c2ccncc21 [Example 36, (1-((1R,3S,4S)-2-Azabicyclo[2.2.1]heptane-3-carbonyl)piperidin-4-yl)(1-(4-fluoro-2-(1-isopropyl-1H-pyrazol-5-yl)phenyl)-1H-pyrrolo[2,3-c]pyridin-3-yl)methanone] | – | 1.2 µM | <1.0 μl/min/1E6 | –
8 | CC(C)c1ncncc1-c1cc(F)ccc1-n1cc(C(=O)C2CCN(C(=O)[C@H]3N[C@@H]4CC[C@H]3C4)CC2)c2ccncc21 [Example 37, (1-((1R,3S,4S)-2-Azabicyclo[2.2.1]heptane-3-carbonyl)piperidin-4-yl)(1-(4-fluoro-2-(4-isopropylpyrimidin-5-yl)phenyl)-1H-pyrrolo[2,3-c]pyridin-3-yl)methanone] | – | 0.3 µM | <1.0 μl/min/1E6 | –
9 | CCN(C(=O)c1cc(F)ccc1-n1cc(C(=O)C2CCN(C(=O)[C@H]3N[C@@H]4CC[C@H]3C4)CC2)c2ccncc21)C(C)C [Example 31, 2-(3-(1-((1R,3S,4S)-2-Azabicyclo[2.2.1]heptane-3-carbonyl)piperidine-4-carbonyl)-1H-pyrrolo[2,3-c]pyridin-1-yl)-N-ethyl-5-fluoro-N-isopropylbenzamide] | – | 0.1 µM | <1.0 μl/min/1E6 | –

Further lines, with some results ahead:

Row | IC50 (OCI-AML3 cells; Homo sapiens, OCI-AML-3, 168 h) | Ki (muscarinic M2 receptor) | HH CLint [1] | Compound | IC50 (OCI-AML3 cells)
10 | 0.313 µM | – | – | Cc1c(C(=O)[C@@H]2CCN(C(=O)[C@@H]3CC[C@@H](C)N3)[C@@H](C)C2)c2ccncc2n1-c1ccc(F)cc1C(=O)N(C(C)C)C(C)C (stereo in doubt) [Example 64, 5-Fluoro-N,N-diisopropyl-2-(2-methyl-3-((2S,4RS)-2-methyl-1-((2S,5R)-5-methylpyrrolidine-2-carbonyl)piperidine-4-carbonyl)-1H-pyrrolo[2,3-c]pyridin-1-yl)benzamide] | –
11 | 0.126 µM | – | – | CCN(C(=O)c1cc(F)ccc1-n1c(C)c(C(=O)[C@@H]2CCN(C(=O)[C@@H]3CC[C@@H](C)N3)[C@@H](C)C2)c2ccncc21)C(C)C (stereo in doubt) [Example 65, N-Ethyl-5-fluoro-N-isopropyl-2-(2-methyl-3-((2S,4RS)-2-methyl-1-((2S,5R)-5-methylpyrrolidine-2-carbonyl)piperidine-4-carbonyl)-1H-pyrrolo[2,3-c]pyridin-1-yl)benzamide] | –
12 | – | 0.4 µM | <1.0 μl/min/1E6 | CCN(C(=O)c1cc(F)ccc1-n1cc(C(=O)C2CCN(C(=O)[C@H]3NC[C@@H]4C[C@@H]43)CC2)c2ccncc21)C(C)C [Example 28, 2-(3-(1-((1S,2S,5R)-3-Azabicyclo[3.1.0]hexane-2-carbonyl)piperidine-4-carbonyl)-1H-pyrrolo[2,3-c]pyridin-1-yl)-N-ethyl-5-fluoro-N-isopropylbenzamide] | –
13 | – | 3.8 µM | 4.4 μl/min/1E6 | Cc1c(C(=O)C2CCN(C(=O)[C@H]3NC[C@@H]4C[C@@H]43)CC2)c2ccncc2n1-c1ccc(F)cc1C(=O)N(C(C)C)C(C)C (single isomer, unassigned) [Example 55-1] | –
14 | 0.113 µM | – | <1.0 μl/min/1E6 | CC(C)N(C(=O)c1cc(F)ccc1-n1cc(C(=O)[C@@H]2CCN(C(=O)[C@H]3N[C@@H]4CC[C@H]3C4)C2)c2ccncc21)C(C)C [Example 3, 2-(3-((R)-1-((1R,3S,4S)-2-Azabicyclo[2.2.1]heptane-3-carbonyl)pyrrolidine-3-carbonyl)-1H-pyrrolo[2,3-c]pyridin-1-yl)-5-fluoro-N,N-diisopropylbenzamide] | –
15 | – | 0.8 µM | <1.0 μl/min/1E6 | CC(C)N(C(=O)c1cc(F)ccc1-n1cc(C(=O)C2CCN(C(=O)[C@H]3NC4CCC3CC4)CC2)c2ccncc21)C(C)C [Example 20, (S)-2-(3-(1-(2-Azabicyclo[2.2.2]octane-3-carbonyl)piperidine-4-carbonyl)-1H-pyrrolo[2,3-c]pyridin-1-yl)-5-fluoro-N,N-diisopropylbenzamide] | –
16 | – | 0.7 µM | <1.7 μl/min/1E6 | CC(C)N(C(=O)c1cc(F)ccc1-n1cc(C(=O)C2CCN(C(=O)[C@H]3N[C@H]4C[C@@H]3[C@@H](F)C4)CC2)c2ccncc21)C(C)C [Example 22, 5-Fluoro-2-(3-(1-((1S,3S,4S,5S)-5-fluoro-2-azabicyclo[2.2.1]heptane-3-carbonyl)piperidine-4-carbonyl)-1H-pyrrolo[2,3-c]pyridin-1-yl)-N,N-diisopropylbenzamide] | –
